This is an account of results in patent US11795147B2, “Modulators of complex I” (Boehringer Ingelheim International GmbH, priority 2019, dated 2023).

In this test the target is Complex I. The experiment in a line: Assay A: Determination of Complex I mediated ROS-inhibition (CI). The format is biochemical. Conditions: read-out: CI IC50; ROS generation by Complex I purified from bovine heart, Amplex Red/horse radish peroxidase readout, 8 point concentration-response.
Turning to `CN(C)c1ccc2c(c1)/C(=C1\CCCN1)C(=O)N2C` [Compound 1], the IC50 is 60 nM.

For `CN(C)c1ccc2c(c1)/C(=C1\COCCN1)C(=O)N2C` [Compound 2], the IC50 stood at 80 nM. In the case of `CC(C)Nc1ccc2c(c1)/C(=C1\COCCN1)C(=O)N2C1CCOCC1` [Compound 3] it was 77 nM; in that of `O=C1/C(=C2/COCCN2)c2cc(N3CCOCC3)ccc2N1C1CCOCC1` [Compound 4], 242 nM. In the case of `CC(C)Nc1ccc2c(c1)/C(=C1\CN(C3COC3)CCN1)C(=O)N2C1CCOCC1` [Compound 5] it was 81 nM.

Regarding `CC(C)Nc1ccc2c(c1)C(=C1CCOCC1)C(=O)N2C1CCOCC1` [Compound 6], the IC50 stood at 533 nM. In the case of `CC(C)N1C(=O)C(=C2CCOCC2)c2cc(N3CCCC3)ccc21` [Compound 7] it was 350 nM. In the case of `CN1CCC/C1=C1/C(=O)N(C2CCOCC2)c2ccc(NC3CCC3)cc21` [Compound 9] it was 398 nM. `CC(=O)N1CCN/C(=C2\C(=O)N(C3CCOCC3)c3ccc(N4CCCC4)cc32)CC1` [Compound 12]: the IC50 was 194 nM. In the case of `O=C1/C(=C2/CCOCCN2)c2cc(NC3CCCC3)ccc2N1C1CCOCC1` [Compound 13] it was 84 nM; in that of `O=C1/C(=C2/COCCN2)c2cc(NC3CCC3)ccc2N1C1CCOC1` (stereo not drawn) [Compound 14], 101 nM; in that of `CC(Nc1ccc2c(c1)/C(=C1\COCCN1)C(=O)N2C(C)C)c1cccnc1` (stereo not drawn) [Compound 15], 96 nM. The figure for `COC1COCCC1Nc1ccc2c(c1)/C(=C1\COCCN1)C(=O)N2C(C)C` (stereo not drawn) [Compound 16] is 313 nM. In the case of `CC(Nc1ccc2c(c1)/C(=C1\COCCN1)C(=O)N2C(C)C)c1ccnn1C` (stereo not drawn) [Compound 17] it was 22 nM; in that of `O=C1/C(=C2/COCCN2)c2cc(NC3CCOCC3)ccc2N1C1CCOCC1` [Compound 18], 11 nM.

Turning to `CC(C)N1CCC(Nc2ccc3c(c2)/C(=C2\COCCN2)C(=O)N3C2CCOCC2)CC1` [Compound 19], the IC50 was 22 nM. With `CC(Nc1ccc2c(c1)/C(=C1\COCCN1)C(=O)N2C1CCOCC1)C1CC1` (stereo not drawn) [Compound 20], the IC50 was 73 nM. Turning to `O=C1/C(=C2/COCCN2)c2cc(NCc3cc[nH]n3)ccc2N1C1CCOCC1` [Compound 21], the IC50 was 108 nM.

As to `CC(C)N1C(=O)/C(=C2/CCOCCN2)c2cc(NC3CCC3)ccc21` [Compound 22], the half-inhibitory concentration (IC50) was determined as 87 nM. In the case of `CC(C)N1CCN/C(=C2\C(=O)N(C)c3ccc(N4CCCC4)cc32)C1` [Compound 23], the half-inhibitory concentration (IC50) amounted to 137 nM. For the compound `CC(C)N1C(=O)C(=C2CCOCC2)c2cc(NC3CCC3)ccc21` [Compound 25], the IC50 was 707 nM.

Turning to `CC(C)Nc1ccc2c(c1)/C(=C1\COCCN1)C(=O)N2C1COCCOC1` [Compound 26], the IC50 was determined as 20 nM.

`CC(C)C(C)Nc1ccc2c(c1)/C(=C1\COCCN1)C(=O)N2C1COCCOC1` (stereo not drawn) [Compound 27]: the IC50 is 162 nM.

On to `COCC(C)N1C(=O)/C(=C2/COCCN2)c2cc(NC(C)C)ccc21` (stereo not drawn) [Compound 28], for which the IC50 was found to be 69 nM. The figure for `CC1CCC(C)N1c1ccc2c(c1)/C(=C1\CCOCCN1)C(=O)N2C1CCOCC1` (stereo not drawn) [Compound 29] is 132 nM; for `CC(C)Nc1ccc2c(c1)/C(=C1\COCCN1)C(=O)N2[C@H]1CCN(C(C)C)C1` [Compound 31] it is 81 nM. In the case of `O=C1/C(=C2/COCCN2)c2cc(NC3CCOCC3)ccc2N1C1CCOC1` (stereo not drawn) [Compound 32] it was 31 nM; in that of `CC(C)Nc1ccc2c(c1)/C(=C1\COCC(C)N1)C(=O)N2C1CCOCC1` (stereo not drawn) [Compound 33], 32 nM; in that of `CC(=O)N1CCC2(CC1)CN/C(=C1\C(=O)N(C(C)C)c3ccc(NC(C)C)cc31)CO2` [Compound 34], 48 nM. Consider `Nc1ccc2c(c1)/C(=C1\COCCN1)C(=O)N2C1CCOCC1` [Compound 35], for which the IC50 came out at 83 nM. The figure for `CC(C)N1C(=O)/C(=C2/COCCN2)c2cc(NC3CCOCC3)ccc21` [Compound 36] is 150 nM; for `CC(Nc1ccc2c(c1)/C(=C1\COCCN1)C(=O)N2C(C)C)C1CCC1` (stereo not drawn) [Compound 37] it is 405 nM; for `CC(C)N1C(=O)/C(=C2/COCCN2)c2cc(NC3CCN(C)CC3)ccc21` [Compound 38] it is 51 nM. The figure for `CC(C)N1C(=O)/C(=C2/COCCN2)c2cc(NCC3CCOC3)ccc21` (stereo not drawn) [Compound 39] is 67 nM. The figure for `CN1C(=O)/C(=C2/CCNCCN2)c2cc(N3CCCC3)ccc21` [Compound 40] is 166 nM; for `CN(C)c1ccc2c(c1)/C(=C1\CCOCCN1)C(=O)N2C` [Compound 41] it is 52 nM; for `CN(C)c1ccc2c(c1)/C(=C1\CCCN1)C(=O)N2C1CCOCC1` [Compound 42] it is 42 nM. Regarding `CNc1ccc2c(c1)/C(=C1\CCCN1)C(=O)N2C1CCOCC1` [Compound 43], the IC50 came out at 11 nM. The figure for `CC(C)Nc1ccc2c(c1)/C(=C1\COCCN1)C(=O)N2C(C)C` [Compound 44] is 44 nM. The figure for `CN1C(=O)/C(=C2/CCN(C3COC3)CCN2)c2cc(N3CCCC3)ccc21` [Compound 45] is 259 nM. In the case of `CC(C)Nc1ccc2c(c1)/C(=C1\CN(C(C)C)CCN1)C(=O)N2C1CCOCC1` [Compound 46] it was 86 nM; in that of `CC(C)Nc1ccc2c(c1)C(=C1CCOCC1)C(=O)N2C(C)C` [Compound 47], 153 nM; in that of `CC(C)Nc1ccc2c(c1)/C(=C1\CCCN1C)C(=O)N2C1CCOCC1` [Compound 48], 122 nM. Regarding `CN1CCC/C1=C1/C(=O)N(C2CCOCC2)c2ccc(NC3CCOC3)cc21` (stereo not drawn) [Compound 49], the IC50 was found to be 282 nM. The figure for `O=C1/C(=C2/COCCN2)c2cc(NC3CCCC3)ccc2N1C1COCCOC1` [Compound 50] is 195 nM. The figure for `O=C1/C(=C2/COCCN2)c2cc(NC3CCC3)ccc2N1C1COC1` [Compound 51] is 135 nM. In the case of `COCC(C)Nc1ccc2c(c1)/C(=C1\COCCN1)C(=O)N2C1CCOC1` (stereo not drawn) [Compound 52] it was 61 nM; in that of `CC(=O)N1CCC2(CC1)CN/C(=C1\C(=O)N(C(C)C)c3ccc(N4CCCC4)cc31)CO2` [Compound 53], 233 nM; in that of `CCC(C)Nc1ccc2c(c1)/C(=C1\COCCN1)C(=O)N2C(C)C` (stereo not drawn) [Compound 54], 203 nM. In the case of `CC(C)N1C(=O)/C(=C2/COCCN2)c2cc(NC(C)C(C)(C)C)ccc21` (stereo not drawn) [Compound 55], the IC50 is 307 nM.

In the case of `CC(Nc1ccc2c(c1)/C(=C1\COCCN1)C(=O)N2C(C)C)C1CCCC1` (stereo not drawn) [Compound 56], the IC50 was found to be 159 nM.

Regarding `CC(Nc1ccc2c(c1)/C(=C1\COCCN1)C(=O)N2C(C)C)c1cnccn1` (stereo not drawn) [Compound 57], the IC50 was determined as 73 nM. In the case of `CC(C)N1C(=O)/C(=C2/COCCN2)c2cc(NCC3CC3)ccc21` [Compound 58] it was 100 nM; in that of `CCC(C)Nc1ccc2c(c1)/C(=C1\COCCN1)C(=O)N2C1CCOCC1` (stereo not drawn) [Compound 59], 122 nM.

For `O=C1/C(=C2/COCCN2)c2cc(NC3CCCC3)ccc2N1C1CCOCC1` [Compound 60], the IC50 was 245 nM. In the case of `CC(Nc1ccc2c(c1)/C(=C1\COCCN1)C(=O)N2C1CCOCC1)C1CCCC1` (stereo not drawn) [Compound 61] it was 343 nM. In the case of `CN(C)c1ccc2c(c1)/C(=C1\CCCCN1)C(=O)N2C` [Compound 62] it was 81 nM; in that of `CC(C)Nc1ccc2c(c1)/C(=C1\COCCN1)C(=O)N2C` [Compound 63], 22 nM; in that of `CN1CCN/C(=C2\C(=O)N(C)c3ccc(N4CCCC4)cc32)CC1` [Compound 64], 286 nM. The figure for `O=C1/C(=C2/COCCN2)c2cc(NC3CCCC3)ccc2N1C1COC1` [Compound 65] is 194 nM; for `CC(C)C(C)Nc1ccc2c(c1)/C(=C1\COCCN1)C(=O)N2C1COC1` (stereo not drawn) [Compound 66] it is 169 nM; for `CC(Nc1ccc2c(c1)/C(=C1\COCCN1)C(=O)N2C1COC1)C1CC1` (stereo not drawn) [Compound 67] it is 225 nM.

For `COCC(C)N1C(=O)/C(=C2/COCCN2)c2cc(N3CCCC3)ccc21` (stereo not drawn) [Compound 68], the IC50 was found to be 624 nM. For the compound `CC(C)Nc1ccc2c(c1)/C(=C1\COCCN1)C(=O)N2[C@H]1CCN(C2COC2)C1` [Compound 69], the half-inhibitory concentration (IC50) is 55 nM. The figure for `O=C1/C(=C2/CC3(CN2)COC3)c2cc(NC3CCOC3)ccc2N1C1CCOCC1` (stereo not drawn) [Compound 70] is 193 nM; for `CC(Nc1ccc2c(c1)/C(=C1\COCCN1)C(=O)N2C(C)C)c1ccccn1` (stereo not drawn) [Compound 71] it is 93 nM.

In the case of `CC(C)N1C(=O)/C(=C2/COCCN2)c2cc(NC3CCC(F)(F)CC3)ccc21` [Compound 72], the IC50 amounted to 140 nM. As for `CC(C)N1C(=O)/C(=C2/COCCN2)c2cc(NC3CCOCC3F)ccc21` (stereo not drawn) [Compound 73], the IC50 amounted to 66 nM. The figure for `CC(C)N1C(=O)/C(=C2/COCCN2)c2cc(NCc3cc[nH]n3)ccc21` [Compound 74] is 46 nM; for `CC(C)N1C(=O)/C(=C2/COCCN2)c2cc(NCC3CCOCC3)ccc21` [Compound 75] it is 72 nM. Turning to `CCC(CC)Nc1ccc2c(c1)/C(=C1\COCCN1)C(=O)N2C1CCOCC1` [Compound 76], the IC50 amounted to 43 nM. As for `CC(Nc1ccc2c(c1)/C(=C1\COCCN1)C(=O)N2C1CCOCC1)c1ccccn1` (stereo not drawn) [Compound 77], the IC50 amounted to 22 nM. In the case of `O=C1/C(=C2/COCCN2)c2cc(NC3CCC(F)(F)CC3)ccc2N1C1CCOCC1` [Compound 78] it was 89 nM; in that of `CC(Nc1ccc2c(c1)/C(=C1\COCCN1)C(=O)N2C1CCOCC1)c1ccnn1C` (stereo not drawn) [Compound 79], 20 nM. The figure for `O=C1/C(=C2/COCCN2)c2cc(NC3CCOCC3F)ccc2N1C1CCOCC1` (stereo not drawn) [Compound 80] is 84 nM. The figure for `O=C1/C(=C2/COCCN2)c2cc(NCC3CCOCC3)ccc2N1C1CCOCC1` [Compound 81] is 130 nM. As to `CC(C)Nc1ccc2c(c1)/C(=C1\CCOCCN1)C(=O)N2C(C)C` [Compound 82], the IC50 came to 91 nM. Consider `Nc1ccc2c(c1)/C(=C1\CCCN1)C(=O)N2C1CCOCC1` [Compound 83], for which the IC50 came out at 11 nM.

In general, IC50 refers to the point on the concentration scale where inhibition reaches its midpoint.
